{
  "source": "paper PMC9979976",
  "about": "(Acta Crystallographica. Section F, Structural Biology …, 2023)",
  "key": {"[1]": {"target": "T1, CATIII (chloramphenicol acetyltransferase III; CATIII+GG) (Escherichia coli, UniProt P00484)", "T1 construct": "gene cat3; synthetic gene, full length without Met1; expressed in E. coli BL21(DE3); trimer", "experiment": "X-ray crystal structure, […] A", "format": "binding"}, "[2]": {"target": "the molecule itself", "experiment": "crystal structure; CATIII+GG at 24 mg/ml co-crystallised with 10 mM partially hydrolysed AcOCoA and saturating chloramphenicol; hanging drop, 46% PEG 400, 100 mM MgCl2, 0.1 M sodium citrate pH 5.5; space group P4(2)2(1)2, 1.68 A"}},
  "data": [
    {"molecule": "CC(=O)OCCNC(=O)CCNC(=O)[C@H](O)C(C)(C)COP(=O)(O)OP(=O)(O)OC[C@H]1O[C@@H](n2cnc3c(N)ncnc32)[C@H](O)[C@@H]1OP(=O)(O)O", "note": "[AcOCoA, acetyl-oxa(dethia)CoA]", "values": [
      {"measurement": "X-ray crystal structure, 1.68 A", "setting": "[1]; co-crystallized with 10 mM AcOCoA (partly hydrolysed) and saturated chloramphenicol, pH 5.5, 298 K, active site, clearest in chain A, unreactive substrate analog", "result": "In monomer A we can clearly model the position of the acetyl group"}
    ]},
    {"molecule": "CC(C)(COP(=O)(O)OP(=O)(O)OC[C@H]1O[C@@H](n2cnc3c(N)ncnc32)[C@H](O)[C@@H]1OP(=O)(O)O)[C@@H](O)C(=O)NCCC(=O)NCCO", "note": "[OCoA, oxa(dethia)CoA]", "values": [
      {"measurement": "X-ray crystal structure, 1.68 A", "setting": "[1]; minor species (about 20% in monomer A) mixed with AcOCoA, with chloramphenicol, pH 5.5, active site", "result": "Our structures here reveal a mixture of bound AcOCoA and OCoA"}
    ]},
    {"molecule": "O=C(N[C@H](CO)[C@H](O)c1ccc([N+](=O)[O-])cc1)C(Cl)Cl", "note": "[chloramphenicol]", "values": [
      {"measurement": "X-ray crystal structure, 1.68 A", "setting": "[1]; co-crystallized at saturation with AcOCoA/OCoA, pH 5.5, 298 K, active site of each monomer", "result": "Our CATIII structure has clear electron density for chloramphenicol in each monomer"}
    ]},
    {"molecule": "Chloramphenicol acetyltransferase III (enzyme, cloning artifact left after TEV cleavage (Ser-Gly-Gly before Asn2); two Zn2+ modelled at contacts between trimers; also called CATIII; CATIII+GG; source: E. coli BL21(DE3), purified (HisTrap HP, TEV cleavage, second HisTrap HP); not shown: His6, N-terminal, cleaved) SGGNYTKFDVKNWVRREHFEFYRHRLPCGFSLTSKIDITTLKKSLDDSAYKFYPVMIYLIAQAVNQFDELRMAIKDDELIVWDSVDPQFTVFHQETETFSALSCPYSSDIDQFMVNYLSVMERYKSDTKLFPQGVTPENHLNISALPWVNFDSFNLNVANFTDYFAPIITMAKYQQEGDRLLLPLSVQVHHAVCDGFHVARFINRLQELCNSKLK", "values": [
      {"measurement": "stoichiometry N", "setting": "[2]", "result": 3}
    ]}
  ]
}
